Legend:
[1] = tested on: F. nucleatum; test: Bacterial survival after 20 sec blue light exposure in the presence of scavengers; format: cell-based, Fusobacterium nucleatum; conditions: F. nucleatum in PBS suspension, halogen lamp, 23 J/cm^2, scavengers 30 to 100 μM, relative to non-exposed control (FIG. 5D)
Description: (§1) Bacteria: P. gingivalis, F. nucleatum, S. mutans, S. faecalis, P. gingivalis and F. nucleatum were grown and incubated at 37° C. in an anaerobic jar at <1% O2 and 9-13% CO2. S. mutans and S. faecalis were grown and incubated under aerobic conditions at 37° C. All the strains were sub-cultured twice before exposure to light. The bacterial concentration following 24 h incubation was standardized by dilution with sterile broth to about 5×10^6 cfu.
(§2) Determination of bacterial survival: Following exposure of the bacteria in suspension to light, samples were diluted and applied to the agar plates. Survival of these bacteria were determined, as well as of the duplicates of single bacteria on agar, by counting cfu following incubation. P. gingivalis and F. nucleatum were cultured under anaerobic conditions and S. mutans and S. faecalis under aerobic conditions at 37° C. until bacterial colonies were visible (1-5 days). The percentage of surviving bacteria was calculated in relation to the control non-exposed samples under similar experimental conditions. Biofilm inhibition in the triplicates bacterial lawn samples was defined as a halo without colony growth appearing in the light-exposed areas. All experiments in which the results of the exposed samples differed from those of the control were repeated at least twice. […]

[2] = tested on: P. gingivalis; test: as above; format: cell-based, Porphyromonas gingivalis; conditions: P. gingivalis in PBS suspension, halogen lamp, 23 J/cm^2, scavengers 30 to 100 μM, relative to non-exposed control (FIG. 5C)
Description: as §1, §2

CNC(=S)NC [DMTU, dimethylthiourea]
percent survival of bacteria [1]: 63% | percent survival of bacteria [2]: 48%

Reference: patent publication US8240312B2, “Method and means for exerting a phototoxic effect of visible light on microorganisms” (Osnat Feuerstein, priority 2004, dated 2012)
